Results from US10364247B2, “Preparation and use of novel protein kinase inhibitors” (Ruijin Hospital Affiliated to Shanghai Jiao Tong University …, priority 2015, dated 2019).

Experiments:
Assay in all cases: KINOMEscan competition binding
[1] = target: ABL1(F317L)-nonphosphorylated (Homo sapiens, UniProt P00519, F317L); conditions: read-out: Percent Control
Procedure: (§1) KINOMEscan™ is based on a competition binding assay that quantitatively measures the ability of a compound to compete with an immobilized, active-site directed ligand (Fabian et al. (2005) Nat. Biotechnol. 23, 329; Karaman et al. (2008) Nat. Biotechnol. 26, 127). The compound was screened at 10 μM, and results for primary screen binding interactions are reported as ‘% Ctrl’, where lower numbers indicate stronger hits. The results for kinases targets with a % Ctrl less than 30 can be seen in Table 2.

[2] = target: ABL1(F317L)-phosphorylated (Homo sapiens, UniProt P00519, F317L); conditions: read-out: Percent Control
Procedure: as §1

[3] = target: T1, ABL1(H396P)-nonphosphorylated (Homo sapiens, UniProt P00519, H396P); conditions: read-out: Percent Control
T1 construct: purchased KINOMEscan (panel service)
Procedure: as §1

[4] = target: T2, ABL1(Y253F)-phosphorylated (Homo sapiens, UniProt P00519, Y253F); conditions: read-out: Percent Control
T2 construct: purchased KINOMEscan (panel service)
Procedure: as §1

ABL1-nonphosphorylated = ABL1-nonphosphorylated (Homo sapiens, UniProt P00519); conditions: read-out: Percent Control
Procedure: as §1

AURKC = target: T3, AURKC (Homo sapiens, UniProt Q9UQB9); conditions: read-out: Percent Control
T3 construct: purchased KINOMEscan (screening service)
Procedure: as §1

BMX = BMX (Homo sapiens, UniProt P51813); conditions: read-out: Percent Control
Procedure: as §1

EGFR = target: T4, EGFR (Homo sapiens, UniProt P00533); conditions: read-out: Percent Control
T4 construct: purchased KINOMEscan (panel service)
Procedure: as §1

EGFR(L747-T751del, Sins) = conditions: 10 μM
Procedure: as §1

EGFR(L858R) = target: T5, EGFR(L858R) (Homo sapiens, UniProt P00533, L858R); conditions: read-out: Percent Control
T5 construct: purchased KINOMEscan (panel service)
Procedure: as §1

EGFR(L861Q) = EGFR(L861Q) (Homo sapiens, UniProt P00533, L861Q); conditions: read-out: Percent Control
Procedure: as §1

EGFR(T790M) = target: T6, EGFR(T790M) (Homo sapiens, UniProt P00533, T790M); conditions: read-out: Percent Control
T6 construct: purchased KINOMEscan (screening service)
Procedure: as §1

EPHA5 = EPHA5 (Homo sapiens, UniProt P54756); conditions: read-out: Percent Control
Procedure: as §1

EPHA6 = EPHA6 (Homo sapiens, UniProt Q9UF33); conditions: read-out: Percent Control
Procedure: as §1

FGFR1 = FGFR1 (Homo sapiens, UniProt P11362); conditions: read-out: Percent Control
Procedure: as §1

FLT3(ITD) = conditions: 10 μM
Procedure: as §1

GAK = target: T7, GAK (Homo sapiens, UniProt O14976); conditions: read-out: Percent Control
T7 construct: purchased KINOMEscan (screening service)
Procedure: as §1

KIT(A829P) = KIT(A829P) (Homo sapiens, UniProt P10721, A829P); conditions: read-out: Percent Control
Procedure: as §1

KIT(D816H) = KIT(D816H) (Homo sapiens, UniProt P10721, D816H); conditions: read-out: Percent Control
Procedure: as §1

MAP3K1 = target: T8, MAP3K1 (Homo sapiens, UniProt Q13233); conditions: read-out: Percent Control
T8 construct: purchased KINOMEscan (screening platform)
Procedure: as §1

MAP3K15 = target: T9, MAP3K15 (Homo sapiens, UniProt Q6ZN16); conditions: read-out: Percent Control
T9 construct: purchased KINOMEscan (screening service)
Procedure: as §1

MAP3K2 = MAP3K2 (Homo sapiens, UniProt Q9Y2U5); conditions: read-out: Percent Control
Procedure: as §1

MAP4K5 = MAP4K5 (Homo sapiens, UniProt Q9Y4K4); conditions: read-out: Percent Control
Procedure: as §1

MEK5 = MEK5 (Homo sapiens, UniProt Q13163); conditions: MEK5 (Entrez MAP2K5), read-out: Percent Control
Procedure: as §1

MINK = MINK (Homo sapiens, UniProt Q8N4C8); conditions: MINK (Entrez MINK1), read-out: Percent Control
Procedure: as §1

MLK1 = MLK1 (Homo sapiens, UniProt P80192); conditions: MLK1 (Entrez MAP3K9), read-out: Percent Control
Procedure: as §1

MLK3 = MLK3 (Homo sapiens, UniProt Q16584); conditions: MLK3 (Entrez MAP3K11), read-out: Percent Control
Procedure: as §1

PFCDPK1(P. falciparum) = PFCDPK1(P. falciparum) (Plasmodium falciparum, UniProt P62344); conditions: PFCDPK1(P. falciparum) (Entrez CDPK1), read-out: Percent Control
Procedure: as §1

RAF1 = target: T10, RAF1 (Homo sapiens, UniProt P04049); conditions: read-out: Percent Control
T10 construct: purchased KINOMEscan (screening service)
Procedure: as §1

RET = RET (Homo sapiens, UniProt P07949); conditions: read-out: Percent Control
Procedure: as §1

RET(V804L) = target: T11, RET(V804L) (Homo sapiens, UniProt P07949, V804L); conditions: read-out: Percent Control
T11 construct: purchased KINOMEscan (panel service)
Procedure: as §1

RET(V804M) = target: T12, RET(V804M) (Homo sapiens, UniProt P07949, V804M); conditions: read-out: Percent Control
T12 construct: purchased KINOMEscan (panel service)
Procedure: as §1

ROS1 = target: T13, ROS1 (Homo sapiens, UniProt P08922); conditions: read-out: Percent Control
T13 construct: purchased KINOMEscan (screening service)
Procedure: as §1

SLK = SLK (Homo sapiens, UniProt Q9H2G2); conditions: read-out: Percent Control
Procedure: as §1

TAOK2 = target: T14, TAOK2 (Homo sapiens, UniProt Q9UL54); conditions: read-out: Percent Control
T14 construct: purchased KINOMEscan (screening service)
Procedure: as §1

TRKC = target: T15, TRKC (Homo sapiens, UniProt Q16288); conditions: TRKC (Entrez NTRK3), read-out: Percent Control
T15 construct: purchased KINOMEscan (screening service)
Procedure: as §1

TRPM6 = target: T16, TRPM6 (Homo sapiens, UniProt Q9BX84); conditions: read-out: Percent Control
T16 construct: purchased KINOMEscan (screening platform)
Procedure: as §1

Sequence of FGFR1 (P11362 22-822): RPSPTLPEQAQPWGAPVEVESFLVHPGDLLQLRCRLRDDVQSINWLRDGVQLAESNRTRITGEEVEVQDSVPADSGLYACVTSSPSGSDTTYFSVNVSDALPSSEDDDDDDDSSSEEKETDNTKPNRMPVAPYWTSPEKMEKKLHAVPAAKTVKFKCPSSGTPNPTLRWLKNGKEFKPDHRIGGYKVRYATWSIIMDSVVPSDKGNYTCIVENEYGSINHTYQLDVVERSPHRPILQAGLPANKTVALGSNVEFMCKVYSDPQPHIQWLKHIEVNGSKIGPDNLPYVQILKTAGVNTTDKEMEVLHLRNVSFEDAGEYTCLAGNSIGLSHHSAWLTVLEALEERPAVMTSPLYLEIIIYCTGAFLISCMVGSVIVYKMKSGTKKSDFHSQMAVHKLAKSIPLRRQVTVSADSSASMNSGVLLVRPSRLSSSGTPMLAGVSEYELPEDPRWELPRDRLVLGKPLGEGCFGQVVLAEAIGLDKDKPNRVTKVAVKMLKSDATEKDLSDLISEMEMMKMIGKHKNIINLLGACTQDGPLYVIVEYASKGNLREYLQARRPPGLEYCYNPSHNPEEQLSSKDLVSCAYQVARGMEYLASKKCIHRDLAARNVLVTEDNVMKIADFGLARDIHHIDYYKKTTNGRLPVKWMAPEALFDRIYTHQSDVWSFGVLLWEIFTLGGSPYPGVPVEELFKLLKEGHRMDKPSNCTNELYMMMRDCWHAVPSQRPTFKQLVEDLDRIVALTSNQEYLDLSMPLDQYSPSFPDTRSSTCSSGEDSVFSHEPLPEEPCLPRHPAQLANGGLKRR
Sequence of SLK (Q9H2G2 whole entry): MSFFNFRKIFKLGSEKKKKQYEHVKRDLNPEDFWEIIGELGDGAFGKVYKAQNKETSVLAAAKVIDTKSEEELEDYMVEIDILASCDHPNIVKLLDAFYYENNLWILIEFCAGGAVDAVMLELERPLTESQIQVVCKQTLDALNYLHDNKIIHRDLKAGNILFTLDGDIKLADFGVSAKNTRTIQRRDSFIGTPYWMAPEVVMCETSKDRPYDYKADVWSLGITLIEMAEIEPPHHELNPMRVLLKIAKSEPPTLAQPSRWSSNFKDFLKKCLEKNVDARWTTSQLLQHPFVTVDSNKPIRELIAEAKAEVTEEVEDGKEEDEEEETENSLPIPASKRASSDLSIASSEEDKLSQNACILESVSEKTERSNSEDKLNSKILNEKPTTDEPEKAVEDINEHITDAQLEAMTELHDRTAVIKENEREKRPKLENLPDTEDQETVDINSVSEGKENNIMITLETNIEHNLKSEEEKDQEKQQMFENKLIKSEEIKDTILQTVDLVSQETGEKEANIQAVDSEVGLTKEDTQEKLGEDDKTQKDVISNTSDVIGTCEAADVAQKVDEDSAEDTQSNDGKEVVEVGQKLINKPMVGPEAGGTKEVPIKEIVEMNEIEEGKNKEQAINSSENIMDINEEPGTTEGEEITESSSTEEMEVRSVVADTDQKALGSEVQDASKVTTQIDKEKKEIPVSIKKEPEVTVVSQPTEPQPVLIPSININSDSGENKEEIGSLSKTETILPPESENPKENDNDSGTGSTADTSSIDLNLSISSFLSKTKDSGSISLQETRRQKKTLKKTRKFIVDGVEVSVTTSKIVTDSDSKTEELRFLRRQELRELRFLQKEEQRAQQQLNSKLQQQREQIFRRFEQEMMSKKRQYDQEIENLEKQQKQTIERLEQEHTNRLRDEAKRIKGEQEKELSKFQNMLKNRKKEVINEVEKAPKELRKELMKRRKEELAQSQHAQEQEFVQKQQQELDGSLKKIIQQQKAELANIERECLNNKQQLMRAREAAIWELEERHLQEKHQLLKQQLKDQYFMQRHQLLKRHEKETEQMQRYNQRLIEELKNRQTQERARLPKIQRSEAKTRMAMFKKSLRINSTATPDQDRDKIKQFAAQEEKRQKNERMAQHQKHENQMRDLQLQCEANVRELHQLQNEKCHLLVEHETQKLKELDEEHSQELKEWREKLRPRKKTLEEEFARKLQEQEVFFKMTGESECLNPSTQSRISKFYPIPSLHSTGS
Sequence of RET (P07949 29-1114): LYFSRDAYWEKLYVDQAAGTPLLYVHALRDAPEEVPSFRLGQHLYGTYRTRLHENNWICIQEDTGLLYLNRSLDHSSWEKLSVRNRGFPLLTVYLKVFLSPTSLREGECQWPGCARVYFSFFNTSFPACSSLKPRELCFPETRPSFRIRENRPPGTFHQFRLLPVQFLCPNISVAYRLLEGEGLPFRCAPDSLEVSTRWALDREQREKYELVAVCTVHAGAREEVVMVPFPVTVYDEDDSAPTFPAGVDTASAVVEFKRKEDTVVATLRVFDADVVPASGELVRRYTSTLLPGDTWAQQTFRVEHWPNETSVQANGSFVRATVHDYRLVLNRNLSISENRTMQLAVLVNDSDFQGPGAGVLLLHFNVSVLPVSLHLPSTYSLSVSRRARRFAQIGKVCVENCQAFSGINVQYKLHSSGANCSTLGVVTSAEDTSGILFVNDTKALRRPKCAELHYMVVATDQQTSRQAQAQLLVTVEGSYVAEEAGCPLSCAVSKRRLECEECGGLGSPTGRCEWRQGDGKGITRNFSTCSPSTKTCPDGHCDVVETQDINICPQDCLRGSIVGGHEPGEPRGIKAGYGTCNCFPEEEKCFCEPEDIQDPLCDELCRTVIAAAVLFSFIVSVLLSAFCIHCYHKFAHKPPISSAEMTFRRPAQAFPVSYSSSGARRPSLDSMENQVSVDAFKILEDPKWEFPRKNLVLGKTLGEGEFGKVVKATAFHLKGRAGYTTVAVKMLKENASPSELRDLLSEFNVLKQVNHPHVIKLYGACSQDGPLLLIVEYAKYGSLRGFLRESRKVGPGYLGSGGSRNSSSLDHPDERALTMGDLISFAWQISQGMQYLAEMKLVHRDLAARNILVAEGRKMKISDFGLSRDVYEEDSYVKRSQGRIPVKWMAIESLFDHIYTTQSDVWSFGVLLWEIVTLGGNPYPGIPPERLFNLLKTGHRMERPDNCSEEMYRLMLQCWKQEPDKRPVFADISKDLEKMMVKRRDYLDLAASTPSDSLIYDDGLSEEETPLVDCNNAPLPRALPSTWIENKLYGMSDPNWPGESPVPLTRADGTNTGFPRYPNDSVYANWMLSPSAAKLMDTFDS
Sequence of MLK3 (Q16584 whole entry): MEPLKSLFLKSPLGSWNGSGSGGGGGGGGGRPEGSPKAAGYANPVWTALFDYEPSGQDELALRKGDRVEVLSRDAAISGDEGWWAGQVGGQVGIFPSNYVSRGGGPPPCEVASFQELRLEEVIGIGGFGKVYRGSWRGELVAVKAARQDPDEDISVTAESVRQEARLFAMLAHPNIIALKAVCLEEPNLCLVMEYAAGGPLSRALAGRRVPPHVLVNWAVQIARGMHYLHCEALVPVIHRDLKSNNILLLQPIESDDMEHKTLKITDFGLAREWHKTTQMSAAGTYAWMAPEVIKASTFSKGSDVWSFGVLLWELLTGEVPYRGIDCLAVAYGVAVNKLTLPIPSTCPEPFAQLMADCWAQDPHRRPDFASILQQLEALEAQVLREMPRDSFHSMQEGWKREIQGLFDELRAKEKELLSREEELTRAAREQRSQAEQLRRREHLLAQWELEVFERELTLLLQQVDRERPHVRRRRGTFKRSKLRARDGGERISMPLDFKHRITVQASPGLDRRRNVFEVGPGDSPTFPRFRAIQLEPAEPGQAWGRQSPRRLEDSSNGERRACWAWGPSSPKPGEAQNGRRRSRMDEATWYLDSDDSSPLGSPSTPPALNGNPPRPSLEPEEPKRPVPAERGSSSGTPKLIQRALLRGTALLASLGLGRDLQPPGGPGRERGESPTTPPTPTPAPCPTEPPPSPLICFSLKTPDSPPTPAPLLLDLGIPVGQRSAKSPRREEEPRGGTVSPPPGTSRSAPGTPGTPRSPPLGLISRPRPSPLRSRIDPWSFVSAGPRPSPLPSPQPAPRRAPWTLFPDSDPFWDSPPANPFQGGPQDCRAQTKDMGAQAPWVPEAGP
T3 sequence (Q9UQB9 whole entry): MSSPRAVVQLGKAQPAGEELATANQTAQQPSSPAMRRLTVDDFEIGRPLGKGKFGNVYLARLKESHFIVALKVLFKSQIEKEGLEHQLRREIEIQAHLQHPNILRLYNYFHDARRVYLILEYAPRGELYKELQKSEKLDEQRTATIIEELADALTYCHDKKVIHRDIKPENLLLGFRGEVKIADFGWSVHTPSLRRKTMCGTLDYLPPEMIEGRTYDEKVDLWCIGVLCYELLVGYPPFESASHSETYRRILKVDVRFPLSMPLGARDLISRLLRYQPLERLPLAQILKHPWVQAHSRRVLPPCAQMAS
Sequence of PFCDPK1(P. falciparum) (P62344 whole entry): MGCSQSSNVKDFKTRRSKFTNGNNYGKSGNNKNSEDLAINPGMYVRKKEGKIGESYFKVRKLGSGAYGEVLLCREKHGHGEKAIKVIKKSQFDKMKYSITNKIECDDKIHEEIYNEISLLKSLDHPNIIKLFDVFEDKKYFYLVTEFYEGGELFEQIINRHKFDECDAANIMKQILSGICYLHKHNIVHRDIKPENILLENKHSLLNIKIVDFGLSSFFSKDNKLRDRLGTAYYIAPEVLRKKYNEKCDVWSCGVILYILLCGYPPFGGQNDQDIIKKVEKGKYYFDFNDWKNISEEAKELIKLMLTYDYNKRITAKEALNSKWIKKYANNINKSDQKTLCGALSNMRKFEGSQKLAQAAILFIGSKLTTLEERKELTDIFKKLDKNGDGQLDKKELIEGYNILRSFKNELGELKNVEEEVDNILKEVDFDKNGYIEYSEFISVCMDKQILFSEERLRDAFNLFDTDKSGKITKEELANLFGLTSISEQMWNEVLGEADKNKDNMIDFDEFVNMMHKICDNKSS
T12 sequence (P07949 29-1114 V804M): as the sequence (P07949 29-1114) above, with V776M counted along it
T11 sequence (P07949 29-1114 V804L): as the sequence (P07949 29-1114) above, with V776L counted along it

## Cc1ccc(Nc2ncc3c(n2)N(C)CN(c2cc(NC(=O)c4cccc(C(F)(F)F)c4)ccc2C)C3)cn1 [IA-9, N-(4-methyl-3-(1-methyl-7-((6-methylpyridin-3-yl)amino)-1,4-dihydropyrimido[4,5-d]pyrimidin-3(2H)-yl)phenyl)-3-(trifluoromethyl)benzamide]
[1]
  remaining binding at 10 µM: 0%
[2]
  remaining binding at 10 µM: 3.2%
[3]
  remaining binding at 10 µM: 0.05%
[4]
  remaining binding at 10 µM: 0.15%
ABL1-nonphosphorylated
  remaining binding at 10 µM: 0.3%
AURKC
  remaining binding at 10 µM: 6.9%
BMX
  remaining binding at 10 µM: 0.75%
EGFR
  remaining binding at 10 µM: 0.05%
EGFR(L747-T751del, Sins)
  Percent Control: 0.4 % Ctrl
EGFR(L858R)
  remaining binding at 10 µM: 0.05%
EGFR(L861Q)
  remaining binding at 10 µM: 0%
EGFR(T790M)
  remaining binding at 10 µM: 13%
EPHA5
  remaining binding at 10 µM: 0.9%
EPHA6
  remaining binding at 10 µM: 0%
FGFR1
  remaining binding at 10 µM: 1.3%
FLT3(ITD)
  Percent Control: 0.55 % Ctrl
GAK
  remaining binding at 10 µM: 7.4%
KIT(A829P)
  remaining binding at 10 µM: 3.6%
KIT(D816H)
  remaining binding at 10 µM: 5.4%
MAP3K1
  remaining binding at 10 µM: 29%
MAP3K15
  remaining binding at 10 µM: 8.4%
MAP3K2
  remaining binding at 10 µM: 5%
MAP4K5
  remaining binding at 10 µM: 2.5%
MEK5
  remaining binding at 10 µM: 0.3%
MINK
  remaining binding at 10 µM: 3.6%
MLK1
  remaining binding at 10 µM: 5.7%
MLK3
  remaining binding at 10 µM: 5.8%
PFCDPK1(P. falciparum)
  remaining binding at 10 µM: 0.35%
RAF1
  remaining binding at 10 µM: 12%
RET
  remaining binding at 10 µM: 0%
RET(V804L)
  remaining binding at 10 µM: 0%
RET(V804M)
  remaining binding at 10 µM: 0%
ROS1
  remaining binding at 10 µM: 17%
SLK
  remaining binding at 10 µM: 6.1%
TAOK2
  remaining binding at 10 µM: 15%
TRKC
  remaining binding at 10 µM: 7.2%
TRPM6
  remaining binding at 10 µM: 26%
